This is an account of results in patent US9546173B2 (Novartis AG, priority 2012, dated 2017).

Common to all, as to format: biochemical
One assay deals with activated ERK2 (Homo sapiens (Human), UniProt P28482). The experiment in a line: Activated ERK2 kinase assay (AlphaScreen, ERKtide peptide phosphorylation). As to conditions: 35 μM ATP, 30 min preincubation, read-out: ERK2 IC50.
In another assay the target is RSK1 (Homo sapiens (Human), UniProt Q15418). Put plainly: In vitro inhibition of RSK1. As to conditions: in vitro activity on RSK1. The procedure:
(§1) The following Table 3 lists compounds that were tested for inhibition of RSK; the IC50 values are in micromolar units, and refer to inhibition of RSK1 and RSK2, respectively. Where multiple measurements were made, each value is reported.

A further assay has as its target RSK2 (Homo sapiens (Human), UniProt P51812). The experiment in a line: In vitro inhibition of RSK2. As to conditions: in vitro activity on RSK2; where multiple measurements were made, each value is reported. The procedure:
as §1

Where [1] appears, read: […] ERK2, 200 nM ERKtide peptide.

Where two headings read alike, the source gives them in different places.

Sequence of RSK2 (P51812 whole entry, species assumed): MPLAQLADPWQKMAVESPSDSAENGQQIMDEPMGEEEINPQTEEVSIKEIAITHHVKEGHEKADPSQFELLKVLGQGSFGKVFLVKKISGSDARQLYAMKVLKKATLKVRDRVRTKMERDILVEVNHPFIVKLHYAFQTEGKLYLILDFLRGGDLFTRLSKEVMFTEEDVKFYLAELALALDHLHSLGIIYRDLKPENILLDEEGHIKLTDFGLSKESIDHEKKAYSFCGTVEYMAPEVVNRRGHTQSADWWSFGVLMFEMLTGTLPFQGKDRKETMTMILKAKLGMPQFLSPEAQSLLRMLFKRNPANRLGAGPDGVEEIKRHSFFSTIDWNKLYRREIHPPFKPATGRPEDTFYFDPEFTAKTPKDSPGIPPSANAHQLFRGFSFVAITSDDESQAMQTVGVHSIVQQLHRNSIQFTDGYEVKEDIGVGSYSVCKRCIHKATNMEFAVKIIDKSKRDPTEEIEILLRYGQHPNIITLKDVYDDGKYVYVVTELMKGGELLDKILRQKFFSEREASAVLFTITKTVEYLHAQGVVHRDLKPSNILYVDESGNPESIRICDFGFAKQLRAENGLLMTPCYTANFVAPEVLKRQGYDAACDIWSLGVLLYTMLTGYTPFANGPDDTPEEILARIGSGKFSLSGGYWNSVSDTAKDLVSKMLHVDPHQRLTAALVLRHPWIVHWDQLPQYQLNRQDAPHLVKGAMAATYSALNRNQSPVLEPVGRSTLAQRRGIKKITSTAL
Sequence of activated ERK2 (P28482 whole entry): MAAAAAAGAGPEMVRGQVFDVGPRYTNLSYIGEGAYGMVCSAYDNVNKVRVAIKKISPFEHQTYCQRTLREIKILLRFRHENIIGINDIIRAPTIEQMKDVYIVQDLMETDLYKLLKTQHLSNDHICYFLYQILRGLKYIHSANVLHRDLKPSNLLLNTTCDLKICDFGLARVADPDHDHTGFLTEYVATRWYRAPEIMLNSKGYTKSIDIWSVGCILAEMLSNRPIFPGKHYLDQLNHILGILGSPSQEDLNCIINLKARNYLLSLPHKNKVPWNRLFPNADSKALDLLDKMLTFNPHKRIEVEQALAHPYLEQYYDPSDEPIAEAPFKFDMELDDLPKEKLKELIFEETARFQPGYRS
Sequence of RSK1 (Q15418 whole entry, species assumed): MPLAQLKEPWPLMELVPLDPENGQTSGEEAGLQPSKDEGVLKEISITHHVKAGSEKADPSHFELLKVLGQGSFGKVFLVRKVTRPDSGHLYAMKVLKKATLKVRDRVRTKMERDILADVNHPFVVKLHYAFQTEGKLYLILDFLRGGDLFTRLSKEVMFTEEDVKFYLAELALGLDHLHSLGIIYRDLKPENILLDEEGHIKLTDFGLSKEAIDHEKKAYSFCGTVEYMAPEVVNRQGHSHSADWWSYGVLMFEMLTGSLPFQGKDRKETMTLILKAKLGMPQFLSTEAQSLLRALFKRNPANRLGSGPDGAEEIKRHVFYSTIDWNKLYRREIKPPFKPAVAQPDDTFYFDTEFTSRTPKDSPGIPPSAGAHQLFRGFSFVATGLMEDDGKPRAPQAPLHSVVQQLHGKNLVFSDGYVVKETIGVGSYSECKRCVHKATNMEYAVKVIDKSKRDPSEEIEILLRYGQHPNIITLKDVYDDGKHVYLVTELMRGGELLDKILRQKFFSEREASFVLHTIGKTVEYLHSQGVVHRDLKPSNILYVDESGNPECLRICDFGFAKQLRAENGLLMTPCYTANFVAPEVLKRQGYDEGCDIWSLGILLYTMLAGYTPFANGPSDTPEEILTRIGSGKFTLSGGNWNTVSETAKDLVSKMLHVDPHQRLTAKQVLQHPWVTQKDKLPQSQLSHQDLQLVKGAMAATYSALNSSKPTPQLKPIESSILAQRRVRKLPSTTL

As a reminder, the IC50 is the point on the concentration scale where inhibition reaches its midpoint. `CN1CCN(C(=O)N2Cc3nc(Nc4ccccc4)ncc3C2(C)C)CC1` [compound 151, (5,5-dimethyl-2-(phenylamino)-5H-pyrrolo[3,4-d]pyrimidin-6(7H)-yl)(4-methylpiperazin-1-yl)methanone]: the IC50 on activated ERK2 (setting [1]) came out at 5.57 µM; against RSK1, 1.61 µM; at RSK2, 1.17 µM.

Turning to `CN(C)CCNC(=O)N1Cc2nc(Nc3ccccc3)ncc2C1(C)C` [compound 157, N-(2-(dimethylamino)ethyl)-5,5-dimethyl-2-(phenylamino)-5H-pyrrolo[3,4-d]pyrimidine-6(7H)-carboxamide], the IC50 stood at 25 µM on activated ERK2 (setting [1]) and 3.85 µM on RSK2.

As to `CN1CCC(NC(=O)N2Cc3nc(Nc4ccccc4)ncc3C2(C)C)C1` (centres unmarked) [compound 158, 5,5-dimethyl-N-(1-methylpyrrolidin-3-yl)-2-(phenylamino)-5H-pyrrolo[3,4-d]pyrimidine-6(7H)-carboxamide], the IC50 amounted to 41.1 µM on activated ERK2 (setting [1]) and 3.88 µM at RSK2.

Consider `CC1(C)c2cnc(Nc3ccccc3)nc2CN1C(=O)NCC1CCN(Cc2ccccc2)C1` (centres unmarked) [compound 159, N-((1-benzylpyrrolidin-3-yl)methyl)-5,5-dimethyl-2-(phenylamino)-5H-pyrrolo[3,4-d]pyrimidine-6(7H)-carboxamide], for which the IC50 is 19.6 µM on activated ERK2 (setting [1]) and 5.65 µM against RSK2.

`Cn1cncc1CNC(=O)N1Cc2nc(Nc3ccccc3)ncc2C1(C)C` [compound 160, 5,5-dimethyl-N-((1-methyl-1H-imidazol-5-yl)methyl)-2-(phenylamino)-5H-pyrrolo[3,4-d]pyrimidine-6(7H)-carboxamide]: the IC50 was determined as 36.6 µM on activated ERK2 (setting [1]) and 5.65 µM on RSK2.

As to `CN(C)[C@@H]1CCCC[C@H]1NC(=O)N1Cc2nc(Nc3ccccc3)ncc2C1(C)C` [compound 161, N-((1R,2R)-2-(dimethylamino)cyclohexyl)-5,5-dimethyl-2-(phenylamino)-5H-pyrrolo[3,4-d]pyrimidine-6(7H)-carboxamide], the IC50 was 125 µM on activated ERK2 (setting [1]) and 8.2 µM against RSK2.

Consider `CC1(C)c2cnc(Nc3ccccc3)nc2CN1C(=O)NCc1cocn1` [compound 162, 5,5-dimethyl-N-(oxazol-4-ylmethyl)-2-(phenylamino)-5H-pyrrolo[3,4-d]pyrimidine-6(7H)-carboxamide], for which the IC50 on activated ERK2 (setting [1]) came out at 16.2 µM; against RSK2, 8.21 µM.

For `CN1CCC(NC(=O)N2Cc3nc(Nc4ccccc4)ncc3C2(C)C)CC1` [compound 163, 5,5-dimethyl-N-(1-methylpiperidin-4-yl)-2-(phenylamino)-5H-pyrrolo[3,4-d]pyrimidine-6(7H)-carboxamide], the IC50 amounted to 83.5 µM on activated ERK2 (setting [1]) and 14 µM at RSK2.

With `CC1(C)c2cnc(Nc3ccccc3)nc2CN1C(=O)NCCO` [compound 164, N-(2-hydroxyethyl)-5,5-dimethyl-2-(phenylamino)-5H-pyrrolo[3,4-d]pyrimidine-6(7H)-carboxamide], the IC50 at activated ERK2 (setting [1]) stood at 18.4 µM; against RSK2, 14 µM.

For `CC1(C)c2cnc(Nc3ccccc3)nc2CN1C(=O)NC1CCOCC1` [compound 165, 5,5-dimethyl-2-(phenylamino)-N-(tetrahydro-2H-pyran-4-yl)-5H-pyrrolo[3,4-d]pyrimidine-6(7H)-carboxamide], the 50% inhibitory concentration (IC50) at activated ERK2 (0.25 nM ERK2, 200 nM ERKtide peptide) worked out at 18.9 µM; at RSK2, 15.2 µM.

As to `CN(C)Cc1ccccc1CNC(=O)N1Cc2nc(Nc3ccccc3)ncc2C1(C)C` [compound 166, N-(2-((dimethylamino)methyl)benzyl)-5,5-dimethyl-2-(phenylamino)-5H-pyrrolo[3,4-d]pyrimidine-6(7H)-carboxamide], the IC50 worked out at 44.8 µM on activated ERK2 (setting [1]) and 16.3 µM at RSK2.
